Results from US9365572B2, “PI3K and/or mTOR inhibitor” (XUANZHU PHARMA CO., LTD., priority 2012, dated 2016).

What was measured:
JAK3 = JAK3 (Homo sapiens (Human), UniProt P52333); test: Kinase selectivity, Mobility shift assay; format: biochemical
Description: (§1) Object: In this assay, the inhibitory activity of the test substance on the kinases listed in Table 3 was determined, and therefore the selectivity of the present compound was determined.
(§2) Except for the BRAF V600E kinase in Table 3, the Mobility shift assay was used for other kinases.
(§3) 1. Preparation of Agents:
(§4) • 1.1 1-fold kinase buffer without MnCl2: 50 mM HEPES, pH 7.5, 0.0015% Brij-35, 10 mM MgCl2, 2 mM DTT. • 1.2 1-fold kinase buffer with MnCl2: 50 mM HEPES, pH 7.5, 0.0015% Brij-35, 10 mM MgCl2, 10 mM MnCl2, 2 mM DTT. • 1.3 Termination solution: 100 mM HEPES, pH 7.5, 0.0015% Brij-35, 0.2% Coating Reagent#3, 50 mM EDTA. • 1.4 2.5-fold kinase solution: The kinase was added to the 1-fold kinase buffer to form a 2.5-fold kinase solution. • 1.5 2.5-fold substrate solution: FAM fluorescence-labelled polypeptide and ATP were added to the 1-fold kinase buffer to form a 2.5-fold substrate solution. 2. Preparation of 5-fold compound
(§5) The final test concentration of the compound was 10 μM at maximum. Firstly, a 50-fold concentration (i.e. 500 μM) was prepared with 100% DMSO. The compound was diluted with 100% DMSO by 5 folds at 5 concentrations (successively 500 μM, 100 μM, 20 μM, 4 μM, and 0.8 μM). After diluting with 1-fold kinase buffer by 10 folds, 5 μl of the samples were transferred to a 384-well reaction plate. Two negative control wells and two positive control wells were set at each line respectively. Replication was made in a 96-well plate in five concentrations of 5-fold compound. 10% DMSO was added to the positive control well, and 5 μl of EDTA (250 mM) was added to the negative control well.
(§6) • 3.1 To the 384-well reaction plate was added 5-fold compound dissolved in 10% DMSO at 5 μl/well. • 3.2 To the 384-well reaction plate was added 2.5-fold kinase solution at 10 μl/well. The plate was incubated at room temperature for 10 mins. • 3.3 To the 384-well reaction plate was added 2.5-fold substrate solution at 10 μl/well. The plate was incubated at 28° C. for a certain period. • 3.4 25 μl termination solution was added to terminate the reaction. The conversion was read from Caliper. 4. Inhibition rate calculation Inhibition rate (%)=(maximum−sample value)/(maximum−minimum)×100 • wherein: • maximum refers to the conversion at the DMSO control well, • minimum refers to the conversion at the control well without kinase. Lanthascreen Analysis Method for the BRAF V600E Kinase 1. Preparation of Agents: • 1.1 2-fold kinase solution: using 1-fold kinase buffer to prepare 2-fold kinase solution, with a final concentration of 0.35 nM of BRAFV600E; • 1.2 4-fold substrate solution: using 1-fold kinase buffer to prepare 4-fold substrate solution, with a final substrate solution concentration of 0.2 μM of Fluorescein-MAP2K1 and 1.5 μM of ATP. 2. Preparation of 4-fold compound • The final test concentration of the compound was 10 μM at maximum. Firstly, a 100-fold concentration (i.e. 1000 μM) was prepared with 100% DMSO. The compound was diluted with 100% DMSO by 5 folds at 5 concentrations. The compound series was identical to that in the Mobility Shift Assay. After diluting with 1-fold kinase buffer by 25 folds, the resulting samples were shaked and mixed evenly on a plate-shaker for 10 mins. 3. Procedure • 3.1 To the 384-well reaction plate was added 4-fold compound dissolved in 10% DMSO at 2.5 µl/well; • 3.2 To the 384-well reaction plate was added 2-fold kinase solution at 5 μl/well, and to the negative control wells were added 1-fold kinase buffer. The samples were shaked, mixed evenly, and kept standing at room temperature. • 3.3 To the 384-well reaction plate was added 4-fold substrate solution at 2.5 μl/well. The plate was reacted, shaked, mixed evenly and incubated at room temperature for one hour; • 3.4 Reaction result detection: 2-fold detection solution was prepared, with a final concentration of 2 nM of Antibody and 10 mM of EDTA. 10 μl of the detection solution was transferred to the 384-well plate to terminate the reaction. […]

MST2 = MST2 (Homo sapiens (Human), UniProt Q13188); test: Kinase selectivity, Mobility shift assay; format: biochemical
Description: as §1, §2, §3, §4, §5, §6

PDGFRb = PDGFRb (Homo sapiens (Human), UniProt P09619); test: Kinase selectivity, Mobility shift assay; format: biochemical
Description: as §1, §2, §3, §4, §5, §6

PIM1 = PIM1 (Homo sapiens (Human), UniProt P11309); test: Kinase selectivity, Mobility shift assay; format: biochemical
Description: as §1, §2, §3, §4, §5, §6

PKCa = PKCa (Homo sapiens (Human), UniProt P17252); test: Kinase selectivity, Mobility shift assay; format: biochemical
Description: as §1, §2, §3, §4, §5, §6

SRC = SRC (Homo sapiens (Human), UniProt P12931); test: Kinase selectivity, Mobility shift assay; format: biochemical
Description: as §1, §2, §3, §4, §5, §6

Adrenergic α1B = Adrenergic α1B (Rattus norvegicus (Rat), UniProt P15823); test: Radioligand binding assay No. 203200; settings: test substance 10 μM, read-out: Inhibitory rate (%), Adrenergic α1B
Adrenergic β2 = Adrenergic β2 (Homo sapiens (Human), UniProt P07550); test: Radioligand binding assay No. 204110; settings: test substance 10 μM, read-out: Inhibitory rate (%), Adrenergic β2
Bradykinin B1 = Bradykinin B1 (Homo sapiens (Human), UniProt P46663); test: Radioligand binding assay No. 212510; settings: test substance 10 μM, read-out: Inhibitory rate (%), Bradykinin B1
Bradykinin B2 = Bradykinin B2 (Homo sapiens (Human), UniProt P30411); test: Radioligand binding assay No. 212620; settings: test substance 10 μM, read-out: Inhibitory rate (%), Bradykinin B2
GABAA, Muscimol, Central = test: Radioligand binding assay No. 226500; settings: test substance 10 μM; rat
Histamine H1 = Histamine H1 (Homo sapiens (Human), UniProt P35367); test: Radioligand binding assay No. 239610; settings: test substance 10 μM, read-out: Inhibitory rate (%), Histamine H1
Interleukin IL-1 = Interleukin IL-1 (Mus musculus (Mouse), UniProt P13504); test: Radioligand binding assay No. 243520; settings: test substance 10 μM, read-out: Inhibitory rate (%), Interleukin IL-1
Opiate κ(OP2, KOP) = Opiate κ(OP2, KOP) (Homo sapiens (Human), UniProt P41145); test: Radioligand binding assay No. 260210; settings: test substance 10 μM, read-out: Inhibitory rate (%), Opiate κ(OP2, KOP)
Sigmaσ1 = Sigmaσ1 (Homo sapiens (Human), UniProt Q99720); test: Radioligand binding assay No. 278110; settings: test substance 10 μM, read-out: Inhibitory rate (%), Sigmaσ1
Thyroid Hormone = test: Radioligand binding assay No. 285900; settings: test substance 10 μM; rat

PDGFRb, sequence (P09619 33-1106, species assumed): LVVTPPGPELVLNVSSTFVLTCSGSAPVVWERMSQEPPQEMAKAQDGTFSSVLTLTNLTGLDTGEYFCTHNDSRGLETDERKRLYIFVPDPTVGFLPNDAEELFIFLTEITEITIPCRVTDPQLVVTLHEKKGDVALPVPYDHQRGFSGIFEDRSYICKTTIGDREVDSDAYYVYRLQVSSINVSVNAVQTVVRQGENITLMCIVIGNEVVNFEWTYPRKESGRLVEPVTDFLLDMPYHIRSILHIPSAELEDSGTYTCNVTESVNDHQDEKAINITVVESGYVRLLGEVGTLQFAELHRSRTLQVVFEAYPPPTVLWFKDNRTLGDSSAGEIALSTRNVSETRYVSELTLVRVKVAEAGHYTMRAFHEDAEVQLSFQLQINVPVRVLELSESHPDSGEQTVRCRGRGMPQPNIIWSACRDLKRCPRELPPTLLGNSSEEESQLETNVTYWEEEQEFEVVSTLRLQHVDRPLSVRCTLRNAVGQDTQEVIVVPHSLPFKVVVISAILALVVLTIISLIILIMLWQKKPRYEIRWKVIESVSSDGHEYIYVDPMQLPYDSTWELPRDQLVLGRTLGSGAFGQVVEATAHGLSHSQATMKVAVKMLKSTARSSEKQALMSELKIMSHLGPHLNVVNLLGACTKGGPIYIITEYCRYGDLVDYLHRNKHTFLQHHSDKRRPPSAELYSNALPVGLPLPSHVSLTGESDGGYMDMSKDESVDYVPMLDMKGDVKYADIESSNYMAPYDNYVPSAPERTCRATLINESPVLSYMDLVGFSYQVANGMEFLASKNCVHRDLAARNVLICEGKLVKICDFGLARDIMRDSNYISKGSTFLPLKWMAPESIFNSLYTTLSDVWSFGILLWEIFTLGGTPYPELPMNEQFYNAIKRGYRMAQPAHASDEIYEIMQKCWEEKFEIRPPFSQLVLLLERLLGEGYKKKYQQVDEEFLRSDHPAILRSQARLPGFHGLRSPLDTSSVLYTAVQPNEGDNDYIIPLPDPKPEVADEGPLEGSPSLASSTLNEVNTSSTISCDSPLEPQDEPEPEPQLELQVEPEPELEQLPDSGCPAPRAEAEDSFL
Bradykinin B1, sequence (P46663 whole entry): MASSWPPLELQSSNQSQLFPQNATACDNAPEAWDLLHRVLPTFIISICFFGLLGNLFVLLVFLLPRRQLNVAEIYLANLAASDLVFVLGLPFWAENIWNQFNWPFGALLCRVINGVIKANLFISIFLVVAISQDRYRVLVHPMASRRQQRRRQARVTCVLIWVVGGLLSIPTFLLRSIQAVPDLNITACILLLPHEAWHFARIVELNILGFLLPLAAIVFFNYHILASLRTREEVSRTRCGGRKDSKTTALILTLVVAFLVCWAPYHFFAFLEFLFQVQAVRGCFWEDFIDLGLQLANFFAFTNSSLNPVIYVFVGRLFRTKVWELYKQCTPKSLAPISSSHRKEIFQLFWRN
Opiate κ(OP2, KOP), sequence (P41145 whole entry): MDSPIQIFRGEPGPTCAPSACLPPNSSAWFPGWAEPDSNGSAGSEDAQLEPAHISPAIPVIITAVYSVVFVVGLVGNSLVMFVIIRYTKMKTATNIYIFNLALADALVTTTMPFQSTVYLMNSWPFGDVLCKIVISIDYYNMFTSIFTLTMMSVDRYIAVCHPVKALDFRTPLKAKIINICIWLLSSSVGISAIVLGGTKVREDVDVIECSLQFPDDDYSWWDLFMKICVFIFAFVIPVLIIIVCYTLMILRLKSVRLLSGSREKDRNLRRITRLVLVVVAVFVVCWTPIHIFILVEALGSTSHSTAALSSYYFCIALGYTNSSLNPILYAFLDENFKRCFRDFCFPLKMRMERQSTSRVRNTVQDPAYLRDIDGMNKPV
Interleukin IL-1, sequence (P13504 20-576): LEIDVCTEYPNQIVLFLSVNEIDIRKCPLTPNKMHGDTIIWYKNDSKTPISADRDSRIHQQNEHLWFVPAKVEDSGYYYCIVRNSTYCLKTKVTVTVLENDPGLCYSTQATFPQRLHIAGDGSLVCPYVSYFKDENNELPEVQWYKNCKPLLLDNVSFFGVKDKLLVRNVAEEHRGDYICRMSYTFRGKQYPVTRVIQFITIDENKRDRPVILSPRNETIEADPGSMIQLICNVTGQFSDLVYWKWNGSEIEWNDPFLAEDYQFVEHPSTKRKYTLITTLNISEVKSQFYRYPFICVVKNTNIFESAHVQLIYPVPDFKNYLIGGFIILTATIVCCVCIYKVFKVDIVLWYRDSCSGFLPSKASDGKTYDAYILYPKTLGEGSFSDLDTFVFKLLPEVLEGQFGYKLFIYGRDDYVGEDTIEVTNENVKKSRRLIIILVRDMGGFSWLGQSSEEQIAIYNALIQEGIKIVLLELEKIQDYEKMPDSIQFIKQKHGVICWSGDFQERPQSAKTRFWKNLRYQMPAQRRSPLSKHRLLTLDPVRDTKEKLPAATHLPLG
PIM1, sequence (P11309 whole entry, species assumed): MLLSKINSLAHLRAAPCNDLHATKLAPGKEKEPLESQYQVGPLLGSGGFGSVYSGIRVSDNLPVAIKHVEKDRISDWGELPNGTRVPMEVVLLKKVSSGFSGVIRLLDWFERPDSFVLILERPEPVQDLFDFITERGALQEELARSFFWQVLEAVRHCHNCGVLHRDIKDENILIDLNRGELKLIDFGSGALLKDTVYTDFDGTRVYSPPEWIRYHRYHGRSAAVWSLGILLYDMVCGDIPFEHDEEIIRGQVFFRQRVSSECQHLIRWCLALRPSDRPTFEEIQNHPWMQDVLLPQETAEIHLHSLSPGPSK
MST2, sequence (Q13188 whole entry, species assumed): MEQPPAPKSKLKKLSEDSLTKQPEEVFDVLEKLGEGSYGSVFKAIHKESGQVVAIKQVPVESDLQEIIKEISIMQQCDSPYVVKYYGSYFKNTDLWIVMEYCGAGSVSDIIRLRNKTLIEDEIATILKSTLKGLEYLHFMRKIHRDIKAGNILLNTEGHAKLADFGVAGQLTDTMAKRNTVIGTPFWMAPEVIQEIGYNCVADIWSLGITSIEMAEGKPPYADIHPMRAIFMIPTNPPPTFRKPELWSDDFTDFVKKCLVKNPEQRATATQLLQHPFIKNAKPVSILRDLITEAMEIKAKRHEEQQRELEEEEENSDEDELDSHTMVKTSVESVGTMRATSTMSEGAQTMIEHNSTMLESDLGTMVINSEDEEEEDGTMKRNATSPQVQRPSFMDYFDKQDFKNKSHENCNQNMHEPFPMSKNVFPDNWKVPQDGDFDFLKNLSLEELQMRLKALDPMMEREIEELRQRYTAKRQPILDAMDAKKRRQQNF
JAK3, sequence (P52333 whole entry, species assumed): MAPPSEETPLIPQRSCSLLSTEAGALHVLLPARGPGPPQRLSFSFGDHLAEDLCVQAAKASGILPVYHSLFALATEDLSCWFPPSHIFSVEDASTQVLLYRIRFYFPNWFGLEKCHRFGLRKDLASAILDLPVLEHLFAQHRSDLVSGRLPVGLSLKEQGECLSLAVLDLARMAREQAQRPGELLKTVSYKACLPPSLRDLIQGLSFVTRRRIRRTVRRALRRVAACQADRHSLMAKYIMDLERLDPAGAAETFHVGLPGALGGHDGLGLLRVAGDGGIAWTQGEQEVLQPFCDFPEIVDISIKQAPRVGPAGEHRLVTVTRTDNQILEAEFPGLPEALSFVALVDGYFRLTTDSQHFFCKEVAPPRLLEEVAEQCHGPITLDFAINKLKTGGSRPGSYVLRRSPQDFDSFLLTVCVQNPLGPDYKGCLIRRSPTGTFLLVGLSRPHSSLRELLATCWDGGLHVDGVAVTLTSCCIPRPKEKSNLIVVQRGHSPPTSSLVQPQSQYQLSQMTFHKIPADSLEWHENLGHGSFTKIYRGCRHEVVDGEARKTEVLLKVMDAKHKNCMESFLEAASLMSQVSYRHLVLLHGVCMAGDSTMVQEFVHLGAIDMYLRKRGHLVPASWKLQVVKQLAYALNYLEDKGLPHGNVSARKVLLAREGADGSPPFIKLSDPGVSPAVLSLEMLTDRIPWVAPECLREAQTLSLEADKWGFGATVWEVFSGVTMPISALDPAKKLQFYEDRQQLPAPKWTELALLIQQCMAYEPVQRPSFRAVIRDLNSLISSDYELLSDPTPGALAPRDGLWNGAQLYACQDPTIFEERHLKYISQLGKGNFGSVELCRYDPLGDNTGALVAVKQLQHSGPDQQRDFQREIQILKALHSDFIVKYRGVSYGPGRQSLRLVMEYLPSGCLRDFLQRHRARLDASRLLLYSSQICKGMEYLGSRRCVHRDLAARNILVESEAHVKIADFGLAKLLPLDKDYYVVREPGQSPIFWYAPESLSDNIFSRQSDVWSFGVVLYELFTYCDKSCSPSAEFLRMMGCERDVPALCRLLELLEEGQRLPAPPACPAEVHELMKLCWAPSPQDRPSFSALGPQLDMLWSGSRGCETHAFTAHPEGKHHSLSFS
SRC, sequence (P12931 whole entry, looked up, species assumed): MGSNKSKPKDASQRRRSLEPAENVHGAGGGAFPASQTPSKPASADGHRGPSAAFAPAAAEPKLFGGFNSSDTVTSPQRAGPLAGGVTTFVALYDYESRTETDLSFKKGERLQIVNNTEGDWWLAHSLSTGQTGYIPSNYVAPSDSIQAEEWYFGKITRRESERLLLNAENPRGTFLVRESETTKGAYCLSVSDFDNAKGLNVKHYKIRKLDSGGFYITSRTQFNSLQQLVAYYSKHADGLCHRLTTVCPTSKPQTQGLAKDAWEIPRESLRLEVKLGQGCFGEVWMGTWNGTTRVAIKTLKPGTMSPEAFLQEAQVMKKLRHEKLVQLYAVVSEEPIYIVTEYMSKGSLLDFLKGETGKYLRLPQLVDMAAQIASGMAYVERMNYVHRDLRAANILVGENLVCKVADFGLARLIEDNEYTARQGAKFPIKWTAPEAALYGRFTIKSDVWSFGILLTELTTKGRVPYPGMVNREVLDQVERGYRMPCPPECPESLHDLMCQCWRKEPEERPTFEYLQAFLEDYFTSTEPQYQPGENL

Nc1ccc(-c2ccc3ncc4c(=O)[nH]c(=O)n(-c5cccc(C(F)(F)F)c5)c4c3n2)cn1 [Compound 5, 9-(6-aminopyridin-3-yl)-1-(3-(trifluoromethyl)phenyl)pyrimido[5,4-c][1,5]naphthyridine-2,4(1H,3H)-dione]
IC50 (JAK3): > 10000 nM | IC50 (MST2): > 10000 nM | IC50 (PDGFRb): > 10000 nM | IC50 (PIM1): > 10000 nM | IC50 (PKCa): > 10000 nM | IC50 (SRC): 842 nM | inhibition at 10 µM (Adrenergic α1B): 21% | inhibition at 10 µM (Adrenergic β2): 17% | inhibition at 10 µM (Bradykinin B1): 0% | inhibition at 10 µM (Bradykinin B2): 24% | Inhibitory rate (%), GABAA, Muscimol, Central (GABAA, Muscimol, Central): 18% | inhibition at 10 µM (Histamine H1): 10% | inhibition at 10 µM (Interleukin IL-1): 11% | inhibition at 10 µM (Opiate κ(OP2, KOP)): 10% | inhibition at 10 µM (Sigmaσ1): 13% | Inhibitory rate (%), Thyroid Hormone (Thyroid Hormone): 9%
